Test system: a variety of test species
Test: Post-emergence herbicidal activity (glasshouse, sprayed 8 days after sowing, evaluated after 13 days)
Assay type: in vivo
Details: scale 0-5
Experimental: Seeds of a variety of test species were sown in standard soil in pots. After 8 days cultivation (post-emergence) under controlled conditions in a glasshouse (at 24/16° C., day/night; 14 hours light; 65% humidity), the plants were sprayed with an aqueous spray solution derived from the formulation of the technical active ingredient in acetone/water (50:50) solution containing 0.5% Tween 20 (polyoxyethelyene sorbitan monolaurate, CAS RN 9005-64-5). The test plants were then grown in a glasshouse under controlled conditions (at 24/16° C., day/night; 14 hours light; 65% humidity) and watered twice daily. After 13 days, the test was evaluated (5=total damage to plant; 0=no damage to plant).

Structure (SMILES)	Post-emergence herbicidal damage score, ABUTH (Abutilon theophrasti) (1000 g/ha)	Post-emergence herbicidal damage score, ALOMY (Alopecurus myosuroides) (1000 g/ha)	Post-emergence herbicidal damage score, AMARE (Amaranthus retroflexus) (1000 g/ha)	Post-emergence herbicidal damage score, ECHCG (Echinochloa crus-galli) (1000 g/ha)	Post-emergence herbicidal damage score, SETFA (Setaria faberi) (1000 g/ha)	Post-emergence herbicidal damage score, ZEAMX (Zea mays) (1000 g/ha)	Post-emergence herbicidal damage score, ABUTH (Abutilon theophrasti) (250 g/ha)	Post-emergence herbicidal damage score, ALOMY (Alopecurus myosuroides) (250 g/ha)	Post-emergence herbicidal damage score, AMARE (Amaranthus retroflexus) (250 g/ha)	Post-emergence herbicidal damage score, ECHCG (Echinochloa crus-galli) (250 g/ha)	Post-emergence herbicidal damage score, SETFA (Setaria faberi) (250 g/ha)	Post-emergence herbicidal damage score, ZEAMX (Zea mays) (250 g/ha)
CCOC(c1cc(N2C(=O)C(C)=C(Cl)C2O)nn1C)C(C)(C)C (mixture of isomers) [Compound B16]	0	0	0	0	0	0						
CC1=C(Cl)C(O)N(c2nn(C)c3c2C2CCC3C2)C1=O (stereo not drawn) [Compound B29]	5	4	5	5	5	3						
CC1=C(Cl)C(O)N(c2cc(C)n(C)n2)C1=O (stereo not drawn) [Compound B1]	5	2	5	2	1	1						
CC1=C(Br)C(O)N(c2cc3n(n2)CCCC3(C)C)C1=O (stereo not drawn) [Compound H8]	5	5	5	4	4	0						
CCC1CCn2nc(N3C(=O)C(C)=C(Cl)C3O)cc21 (mixture of isomers) [Compound G3]	5	4	5	4	5	2						
CC1=C(Cl)C(O)N(c2cc3n(n2)CCC3C)C1=O (mixture of isomers) [Compound G1]	5	4	5	5	4	2						
CC1=C(Cl)C(O)N(c2cc(C(F)(F)C(F)(F)F)[nH]n2)C1=O (stereo not drawn) [Compound A6]	2	1	3	2	2	1						
CC1=C(Cl)C(O)N(c2cc(C(F)(F)F)[nH]n2)C1=O (stereo not drawn) [Compound A2]	4	1	1	2	2	0						
CC1=C(Cl)C(O)N(c2nn(C)c(C(C)(C)C)c2C#N)C1=O (stereo not drawn) [Compound D1]	3	2	4	3	1	0						
C=CCC(C)(C)c1cc(N2C(=O)C(C)=C(Cl)C2O)nn1C (stereo not drawn) [Compound B6, 3-chloro-1-[5-(1,1-dimethylbut-3-enyl)-1-methyl-pyrazol-3-yl]-2-hydroxy-4-methyl-2H-pyrrol-5-one]	5	5	5	5	5	2						
CC1=C(Cl)C(O)N(c2cc(C(F)(F)C(F)(F)F)n(C)n2)C1=O (stereo not drawn) [Compound B4]	5	4	5	4	3	0						
CCn1nc(N2C(=O)C(C)=C(Cl)C2O)cc1C(F)(F)F (stereo not drawn) [Compound C1]	3	3	5	4	0	1						
CC1=C(Cl)C(O)N(c2cc(C)[nH]n2)C1=O (stereo not drawn) [Compound A5]	5	4	3	2	4	2						
CC1=C(Cl)C(OC(=O)Oc2ccccc2)N(c2cc(C(C)(C)C)n(C)n2)C1=O (stereo not drawn) [Compound F2]	5	4	5	5	5	1						
COC1=C(C)C(=O)N(c2cc(C(C)(C)C)[nH]n2)C1O (stereo not drawn) [Compound I1]							5	3	5	3	5	1
COC1=C(C)C(=O)N(c2cc(C(C)(C)C)n(C)n2)C1O (stereo not drawn) [Compound I2]							5	4	5	3	4	1
CC1=C(Cl)C(O)N(c2cc(C(F)C(C)(C)C)n(C)n2)C1=O (mixture of isomers) [Compound B19]	4	2	4	3	4	0						
COC1=C(C)C(=O)N(c2cc3n(n2)CCCC3(C)C)C1O (stereo not drawn) [Compound I5]	5	5	5	5	5	4						

Source: patent publication US20160168126A1, “CHEMICAL COMPOUNDS” (SYNGENTA LIMITED, priority 2013, published 2016)
